Test results published in ChEMBL document CHEMBL1142734, “Biological properties of D- and L-1-deoxyazasugars” (J Med Chem, 2005).

What was measured:
[1] = biological target: Sucrase-isomaltase, intestinal (Rattus norvegicus) (UniProt P23739); conditions: 1000 uM
[2] = biological target: Maltase-glucoamylase (Homo sapiens) (UniProt O43451); conditions: 1000 uM
[3] = biological target: T1, Lysosomal alpha-mannosidase (Homo sapiens) (UniProt O00754); assay: Percent inhibition of human alpha-mannosidase at 1000 uM
T1 sequence (whole entry): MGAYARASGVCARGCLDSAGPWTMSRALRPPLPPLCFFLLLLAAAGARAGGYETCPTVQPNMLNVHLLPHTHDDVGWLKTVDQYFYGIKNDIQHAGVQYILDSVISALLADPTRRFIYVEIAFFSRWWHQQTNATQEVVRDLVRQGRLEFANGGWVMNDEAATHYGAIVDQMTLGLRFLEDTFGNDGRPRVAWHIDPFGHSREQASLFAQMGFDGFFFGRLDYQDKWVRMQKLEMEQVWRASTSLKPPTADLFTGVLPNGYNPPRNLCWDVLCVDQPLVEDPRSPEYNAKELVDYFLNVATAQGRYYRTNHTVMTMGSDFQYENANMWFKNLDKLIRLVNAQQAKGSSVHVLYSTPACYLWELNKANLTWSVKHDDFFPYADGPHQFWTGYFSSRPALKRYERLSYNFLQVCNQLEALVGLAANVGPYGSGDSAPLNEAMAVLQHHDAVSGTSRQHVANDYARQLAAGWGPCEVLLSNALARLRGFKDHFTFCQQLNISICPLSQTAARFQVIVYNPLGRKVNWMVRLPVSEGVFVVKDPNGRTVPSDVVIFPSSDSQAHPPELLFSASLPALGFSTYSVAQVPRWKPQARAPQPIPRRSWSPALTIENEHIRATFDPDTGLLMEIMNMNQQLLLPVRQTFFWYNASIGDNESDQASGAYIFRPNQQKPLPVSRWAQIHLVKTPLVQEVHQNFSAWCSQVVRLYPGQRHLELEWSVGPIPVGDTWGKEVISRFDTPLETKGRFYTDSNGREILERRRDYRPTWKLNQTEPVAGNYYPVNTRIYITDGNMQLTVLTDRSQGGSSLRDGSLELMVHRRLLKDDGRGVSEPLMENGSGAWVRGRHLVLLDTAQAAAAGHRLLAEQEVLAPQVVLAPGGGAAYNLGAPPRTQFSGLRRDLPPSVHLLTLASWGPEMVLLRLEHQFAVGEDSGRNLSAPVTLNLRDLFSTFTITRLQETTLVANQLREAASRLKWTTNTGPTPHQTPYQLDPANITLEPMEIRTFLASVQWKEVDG

[4] = biological target: T2, Alpha-galactosidase A (Homo sapiens) (UniProt P06280); conditions: 1000 uM
T2 sequence (whole entry): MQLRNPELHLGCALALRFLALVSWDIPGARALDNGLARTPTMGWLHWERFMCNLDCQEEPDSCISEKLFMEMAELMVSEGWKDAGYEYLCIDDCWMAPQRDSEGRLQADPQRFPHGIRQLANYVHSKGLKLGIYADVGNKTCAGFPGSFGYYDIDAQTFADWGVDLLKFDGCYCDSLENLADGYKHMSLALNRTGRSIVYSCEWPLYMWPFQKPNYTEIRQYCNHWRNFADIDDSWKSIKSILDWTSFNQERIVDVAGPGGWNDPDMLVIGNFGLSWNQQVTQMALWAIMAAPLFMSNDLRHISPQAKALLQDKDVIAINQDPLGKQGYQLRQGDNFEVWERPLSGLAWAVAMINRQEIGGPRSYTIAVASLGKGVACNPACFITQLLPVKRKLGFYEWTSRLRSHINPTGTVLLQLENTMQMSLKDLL

[5] = biological target: T3, Beta-mannosidase (Homo sapiens) (UniProt O00462); assay: Percent inhibition of human beta-mannosidase at 1000 uM
T3 sequence (whole entry): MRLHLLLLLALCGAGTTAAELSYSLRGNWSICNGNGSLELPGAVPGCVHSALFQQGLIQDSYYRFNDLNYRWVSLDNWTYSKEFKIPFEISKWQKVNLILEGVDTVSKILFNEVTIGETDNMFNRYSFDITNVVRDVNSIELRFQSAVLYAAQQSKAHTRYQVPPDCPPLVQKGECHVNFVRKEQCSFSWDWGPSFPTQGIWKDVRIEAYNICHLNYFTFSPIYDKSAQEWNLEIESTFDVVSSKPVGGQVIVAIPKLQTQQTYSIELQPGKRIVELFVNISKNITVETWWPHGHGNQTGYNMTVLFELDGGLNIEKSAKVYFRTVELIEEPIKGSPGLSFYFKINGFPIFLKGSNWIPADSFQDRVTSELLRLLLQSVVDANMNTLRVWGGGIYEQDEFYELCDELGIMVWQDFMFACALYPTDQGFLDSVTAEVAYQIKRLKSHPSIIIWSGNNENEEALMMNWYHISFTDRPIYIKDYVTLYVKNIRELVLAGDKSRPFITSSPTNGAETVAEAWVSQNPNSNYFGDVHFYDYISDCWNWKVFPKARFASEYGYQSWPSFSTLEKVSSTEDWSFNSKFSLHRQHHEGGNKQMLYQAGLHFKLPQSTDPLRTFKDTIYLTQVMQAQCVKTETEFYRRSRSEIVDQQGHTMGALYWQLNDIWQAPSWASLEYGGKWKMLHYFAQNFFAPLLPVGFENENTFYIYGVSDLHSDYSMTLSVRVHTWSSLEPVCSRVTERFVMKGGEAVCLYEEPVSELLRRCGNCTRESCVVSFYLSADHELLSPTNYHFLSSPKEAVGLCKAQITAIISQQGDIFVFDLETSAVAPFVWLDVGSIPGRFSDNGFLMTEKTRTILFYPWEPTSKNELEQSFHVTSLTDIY

[6] = biological target: T4, Tissue alpha-L-fucosidase (Homo sapiens) (UniProt P04066); conditions: 1000 uM
T4 sequence (whole entry): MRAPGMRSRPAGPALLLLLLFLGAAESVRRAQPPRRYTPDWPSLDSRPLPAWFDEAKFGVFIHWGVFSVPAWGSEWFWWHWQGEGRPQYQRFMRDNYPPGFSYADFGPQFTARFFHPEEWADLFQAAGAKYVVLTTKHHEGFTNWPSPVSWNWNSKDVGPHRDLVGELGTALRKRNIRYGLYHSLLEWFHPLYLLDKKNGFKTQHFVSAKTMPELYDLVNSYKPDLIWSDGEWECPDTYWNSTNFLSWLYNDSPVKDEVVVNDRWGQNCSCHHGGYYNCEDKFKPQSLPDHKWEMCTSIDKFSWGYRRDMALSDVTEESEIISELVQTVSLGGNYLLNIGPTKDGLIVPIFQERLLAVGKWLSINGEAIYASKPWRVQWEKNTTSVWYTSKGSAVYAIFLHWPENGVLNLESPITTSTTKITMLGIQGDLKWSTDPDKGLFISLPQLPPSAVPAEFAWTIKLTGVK

Maltase-glucoamylase (Homo sapiens), sequence (O43451 whole entry, looked up): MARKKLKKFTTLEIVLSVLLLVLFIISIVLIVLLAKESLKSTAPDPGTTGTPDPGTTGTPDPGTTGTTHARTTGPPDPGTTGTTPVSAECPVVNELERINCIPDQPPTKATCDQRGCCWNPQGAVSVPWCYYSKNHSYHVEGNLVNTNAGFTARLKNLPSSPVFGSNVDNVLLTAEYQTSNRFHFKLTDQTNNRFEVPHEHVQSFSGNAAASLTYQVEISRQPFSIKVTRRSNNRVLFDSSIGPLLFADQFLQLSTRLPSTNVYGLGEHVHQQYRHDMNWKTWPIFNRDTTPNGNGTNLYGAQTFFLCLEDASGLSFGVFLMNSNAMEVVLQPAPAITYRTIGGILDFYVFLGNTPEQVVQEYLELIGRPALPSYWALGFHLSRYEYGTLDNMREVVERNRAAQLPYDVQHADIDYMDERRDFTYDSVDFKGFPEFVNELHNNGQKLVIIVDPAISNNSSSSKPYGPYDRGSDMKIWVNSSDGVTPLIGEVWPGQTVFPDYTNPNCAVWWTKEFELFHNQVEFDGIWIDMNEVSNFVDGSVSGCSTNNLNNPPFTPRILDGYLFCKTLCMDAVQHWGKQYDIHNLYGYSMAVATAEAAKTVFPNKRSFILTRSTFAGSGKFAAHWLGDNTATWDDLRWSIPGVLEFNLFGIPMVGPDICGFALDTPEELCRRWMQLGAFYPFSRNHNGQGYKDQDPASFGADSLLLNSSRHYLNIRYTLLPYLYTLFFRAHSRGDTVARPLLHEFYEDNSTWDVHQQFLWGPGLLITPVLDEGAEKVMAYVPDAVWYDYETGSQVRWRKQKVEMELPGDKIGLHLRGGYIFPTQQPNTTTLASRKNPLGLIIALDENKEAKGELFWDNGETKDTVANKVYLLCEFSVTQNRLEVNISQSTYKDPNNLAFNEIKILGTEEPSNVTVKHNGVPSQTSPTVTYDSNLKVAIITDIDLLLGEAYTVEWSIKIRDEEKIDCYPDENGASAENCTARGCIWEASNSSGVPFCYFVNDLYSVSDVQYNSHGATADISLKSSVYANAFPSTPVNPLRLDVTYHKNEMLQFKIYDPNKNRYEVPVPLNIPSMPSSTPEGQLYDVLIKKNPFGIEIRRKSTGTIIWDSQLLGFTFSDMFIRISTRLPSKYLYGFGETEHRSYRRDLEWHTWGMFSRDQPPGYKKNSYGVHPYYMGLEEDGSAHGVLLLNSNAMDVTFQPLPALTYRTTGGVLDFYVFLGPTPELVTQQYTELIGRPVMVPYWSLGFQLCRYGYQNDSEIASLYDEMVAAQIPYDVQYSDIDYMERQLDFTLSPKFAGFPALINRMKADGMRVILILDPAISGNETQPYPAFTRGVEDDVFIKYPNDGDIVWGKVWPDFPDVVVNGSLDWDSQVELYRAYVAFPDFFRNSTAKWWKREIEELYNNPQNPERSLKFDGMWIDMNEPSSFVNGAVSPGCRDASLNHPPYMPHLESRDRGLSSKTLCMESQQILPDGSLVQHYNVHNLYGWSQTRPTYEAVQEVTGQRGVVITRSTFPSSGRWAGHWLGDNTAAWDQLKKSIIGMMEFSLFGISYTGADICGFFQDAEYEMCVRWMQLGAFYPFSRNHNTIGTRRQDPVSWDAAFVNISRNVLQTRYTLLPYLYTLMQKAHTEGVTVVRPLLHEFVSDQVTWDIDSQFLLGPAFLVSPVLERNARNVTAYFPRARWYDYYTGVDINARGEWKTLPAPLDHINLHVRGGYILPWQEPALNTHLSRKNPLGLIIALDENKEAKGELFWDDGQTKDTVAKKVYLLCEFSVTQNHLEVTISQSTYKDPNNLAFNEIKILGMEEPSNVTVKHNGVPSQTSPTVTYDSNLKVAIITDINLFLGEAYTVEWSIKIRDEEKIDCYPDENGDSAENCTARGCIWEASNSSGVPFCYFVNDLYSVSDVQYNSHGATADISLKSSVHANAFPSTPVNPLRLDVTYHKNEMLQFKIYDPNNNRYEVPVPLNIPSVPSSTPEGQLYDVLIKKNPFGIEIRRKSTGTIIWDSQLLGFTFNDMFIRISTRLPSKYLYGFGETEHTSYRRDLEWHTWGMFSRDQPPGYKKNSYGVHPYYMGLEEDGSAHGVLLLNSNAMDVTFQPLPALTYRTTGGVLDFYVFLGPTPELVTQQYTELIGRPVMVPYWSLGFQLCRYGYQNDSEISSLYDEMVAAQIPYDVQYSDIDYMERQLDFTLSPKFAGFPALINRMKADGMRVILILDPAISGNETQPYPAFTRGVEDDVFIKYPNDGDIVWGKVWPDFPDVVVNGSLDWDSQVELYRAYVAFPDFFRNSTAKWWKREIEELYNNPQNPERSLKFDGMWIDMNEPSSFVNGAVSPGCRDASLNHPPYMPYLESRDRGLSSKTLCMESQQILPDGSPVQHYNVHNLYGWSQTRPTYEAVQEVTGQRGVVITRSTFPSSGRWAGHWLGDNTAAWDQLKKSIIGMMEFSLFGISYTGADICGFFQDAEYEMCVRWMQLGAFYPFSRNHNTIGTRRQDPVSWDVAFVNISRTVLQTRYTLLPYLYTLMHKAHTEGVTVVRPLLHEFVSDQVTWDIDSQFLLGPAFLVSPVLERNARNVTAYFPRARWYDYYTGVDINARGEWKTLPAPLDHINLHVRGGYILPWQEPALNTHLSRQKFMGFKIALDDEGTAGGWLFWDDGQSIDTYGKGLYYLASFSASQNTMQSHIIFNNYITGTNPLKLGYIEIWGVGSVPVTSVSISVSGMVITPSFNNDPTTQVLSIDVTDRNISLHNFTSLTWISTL
Sucrase-isomaltase, intestinal (Rattus norvegicus), sequence (P23739 1-1013 limits assumed): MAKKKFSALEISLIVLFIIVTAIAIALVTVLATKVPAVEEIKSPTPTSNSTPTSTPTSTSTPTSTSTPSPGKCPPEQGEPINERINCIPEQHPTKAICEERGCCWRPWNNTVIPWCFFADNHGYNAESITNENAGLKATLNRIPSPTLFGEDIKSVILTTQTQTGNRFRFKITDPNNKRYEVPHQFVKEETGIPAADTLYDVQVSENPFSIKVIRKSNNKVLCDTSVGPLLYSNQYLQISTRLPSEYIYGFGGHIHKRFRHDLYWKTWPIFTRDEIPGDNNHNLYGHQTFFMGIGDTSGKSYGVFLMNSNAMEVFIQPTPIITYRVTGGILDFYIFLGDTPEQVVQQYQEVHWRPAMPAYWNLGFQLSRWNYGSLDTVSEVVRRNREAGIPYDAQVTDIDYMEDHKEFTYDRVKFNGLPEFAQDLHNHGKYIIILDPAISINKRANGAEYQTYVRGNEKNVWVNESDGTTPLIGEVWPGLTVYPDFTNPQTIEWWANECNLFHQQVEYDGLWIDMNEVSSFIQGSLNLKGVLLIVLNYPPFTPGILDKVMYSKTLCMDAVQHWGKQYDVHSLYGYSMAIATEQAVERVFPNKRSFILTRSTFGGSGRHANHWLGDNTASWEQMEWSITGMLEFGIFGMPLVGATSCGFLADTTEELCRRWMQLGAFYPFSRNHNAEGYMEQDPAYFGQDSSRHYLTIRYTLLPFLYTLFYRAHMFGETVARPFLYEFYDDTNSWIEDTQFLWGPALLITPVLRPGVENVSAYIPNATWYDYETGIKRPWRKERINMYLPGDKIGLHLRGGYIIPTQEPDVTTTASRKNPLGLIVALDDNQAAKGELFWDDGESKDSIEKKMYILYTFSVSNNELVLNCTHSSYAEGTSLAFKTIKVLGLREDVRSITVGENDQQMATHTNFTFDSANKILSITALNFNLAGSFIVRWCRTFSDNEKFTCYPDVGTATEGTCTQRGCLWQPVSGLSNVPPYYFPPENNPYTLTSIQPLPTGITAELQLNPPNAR
Sucrase-isomaltase, intestinal (Rattus norvegicus), sequence (P23739 1014-1841 limits assumed): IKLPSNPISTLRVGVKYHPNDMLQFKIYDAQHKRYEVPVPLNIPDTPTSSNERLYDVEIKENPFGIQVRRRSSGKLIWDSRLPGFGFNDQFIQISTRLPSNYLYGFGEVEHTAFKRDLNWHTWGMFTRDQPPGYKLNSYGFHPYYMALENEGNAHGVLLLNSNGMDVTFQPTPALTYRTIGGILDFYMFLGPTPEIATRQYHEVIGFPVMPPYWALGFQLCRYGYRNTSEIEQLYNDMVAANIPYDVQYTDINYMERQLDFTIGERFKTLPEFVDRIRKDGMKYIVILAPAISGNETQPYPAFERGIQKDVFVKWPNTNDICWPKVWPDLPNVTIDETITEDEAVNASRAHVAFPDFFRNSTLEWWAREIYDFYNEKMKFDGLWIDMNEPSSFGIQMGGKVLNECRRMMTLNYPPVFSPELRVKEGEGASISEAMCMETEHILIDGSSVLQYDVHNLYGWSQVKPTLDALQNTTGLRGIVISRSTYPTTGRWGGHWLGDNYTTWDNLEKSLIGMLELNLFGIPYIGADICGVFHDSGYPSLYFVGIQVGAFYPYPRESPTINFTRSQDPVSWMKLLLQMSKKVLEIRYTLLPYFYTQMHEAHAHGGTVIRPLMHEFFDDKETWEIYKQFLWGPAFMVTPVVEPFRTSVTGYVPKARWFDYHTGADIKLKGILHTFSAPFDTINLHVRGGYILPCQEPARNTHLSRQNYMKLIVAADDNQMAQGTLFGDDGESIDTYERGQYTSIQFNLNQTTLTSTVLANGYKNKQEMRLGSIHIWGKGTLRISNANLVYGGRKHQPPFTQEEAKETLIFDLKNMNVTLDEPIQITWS

inhibition [1] [%] | inhibition [2] [%] | inhibition [3] [%] | inhibition [4] [%] | inhibition [5] [%] | inhibition [6] [%] | Compound
< 50 | < 50 | < 50 | < 50 | < 50 | < 50 | OC[C@@H]1NC[C@H](O)[C@@H](O)[C@@H]1O
< 50 | < 50 | < 50 | < 50 | < 50 |  | OC[C@H]1NC[C@H](O)[C@H](O)[C@@H]1O
 |  | < 50 | < 50 | < 50 | < 50 | OC[C@H]1NC[C@H](O)[C@@H](O)[C@@H]1O [DUVOGLUSTAT]
 | < 50 | < 50 | < 50 | < 50 | < 50 | OC[C@@H]1NC[C@@H](O)[C@H](O)[C@H]1O
< 50 | < 50 | < 50 |  | < 50 |  | OC[C@@H]1NC[C@@H](O)[C@H](O)[C@@H]1O
 | < 50 | < 50 | < 50 | < 50 |  | OC[C@H]1NC[C@@H](O)[C@@H](O)[C@@H]1O [DEOXYMANNOJIRIMYCIN]
< 50 | < 50 | < 50 |  | < 50 | < 50 | OC[C@H]1NC[C@H](O)[C@@H](O)[C@H]1O
< 50 | < 50 | < 50 | < 50 | < 50 |  | OC[C@@H]1NC[C@@H](O)[C@@H](O)[C@@H]1O
< 50 | < 50 | < 50 | < 50 | < 50 | < 50 | OC[C@@H]1NC[C@H](O)[C@H](O)[C@H]1O
< 50 | < 50 | < 50 |  | < 50 | < 50 | OC[C@H]1NC[C@@H](O)[C@H](O)[C@H]1O
< 50 | < 50 | < 50 |  | < 50 | < 50 | OC[C@H]1NC[C@H](O)[C@H](O)[C@H]1O
< 50 | < 50 |  | < 50 | < 50 | < 50 | OC[C@@H]1NC[C@@H](O)[C@@H](O)[C@H]1O
